Test results as given in US11787816B2, “Chlorin compound, and preparation and use thereof” (Southwest Jiaotong University, priority 2021, dated 2023).

Assays:
[1] = system: human cervical cancer Hela cells; assay: Photosensitizer-mediated PDT, in vitro proliferation (MTT), Hela; format: cell-based; details: for cell viability (%): Hela; for toxicity to the cells when the drug is used alone without photodynamic treatment: summary statement for Hela, huh-7 and 4T1 cells
Method: Several kinds of tumor cells (human cervical cancer Hela cells, human hepatocellular carcinoma huh-7 cells and murine mammary carcinoma 4T1 cells) cultured in vitro from a variety of tissues were taken as cell models, so as to investigate the photodynamic effects mediated by different doses of CEFN, CEFO, Ce6 and HPPH on the three different tumor cells (n=3). The specific experimental procedures were carried out as follows.
Cells in the logarithmic growth phase were harvested and seeded in a 24-well plate. After growing to a confluence of 70-80%, the cells were randomly divided into a control group (free of drug and light irradiation), a drug group and a photodynamic group. The CEFN, CEFO, Ce6 and HPPH were added respectively in dark, and for each drug, four final concentrations 1, 2, 5, and 10 μg/mL were set with 3 replicates for each group. After the co-incubation, the groups were treated individually. Regarding the photodynamic group, the light irradiation was performed at a wavelength of 660 nm and three different light intensities, i.e., 2, 4 and 8 J/cm^2. After that, each group was digested, and were inoculated into a 96-well plate at 100 μL per well with 4 replicates for each treatment. 24 hours later, the 96-well plate was subjected to MTT assay as follows. Each well was added with 20 μL of MTT (3-4,5-dimethylthiazol-2,5-diphenyltetrazolium bromide) solution in the dark and incubated for 4 hours. The supernatant was discarded, and the residue was dissolved with 150 μL of dimethyl sulfoxide for 15 min. After that, the 96-well plate was measured by a microplate reader for the absorbance (OD value). The relative cell viability was calculated as follows: relative cell viability=OD value of experimental group/OD value of control group*100%.

[2] = system: murine mammary carcinoma 4T1 cells; assay: Antitumor activity as photosensitizers on tumor-bearing mice (one PDT treatment); format: in vivo; details: for Inhibitory rate (average ± SD, %) / Tumor weight (average ± SD, g): 660 nm, 75 Joule/cm^2 6 h after dosing, 7 days after PDT; for Body weight At the begining / Body weight At the end: one PDT treatment, mice, in g (unit assumed)
Method: The murine mammary carcinoma cells (4T1 line) were subjected to adherent culture. After growing to a confluence of 70%-80%, the cells in the culture flask were routinely digested, centrifuged and counted, and then resuspended with 0.85% normal saline to a density of 1×10^7 cells/mL. The cell suspension was injected into the left lateral middle axillary subcutaneous part of […] Bal b/c healthy mice (female, aged 6-8 weeks) at 0.1 mL/mouse. When the tumor diameter, which was observed every other day, reached 0.6-0.8 cm, the mice with well-growing tumors and no ulcers on the epidermis were selected for grouped treatment.
(1) Mice with similar body weight and uniform tumor size are selected and randomly divided into 7 groups with 6 mice for each group. After inoculation for 48 h, the mice were subjected to drug administration separately from the tail vein by group.
6 h after the drug administration, the mice were fixed to expose the tumor growth site. Light irradiation was performed for 8 min, using PDT-660 photodynamic therapy equipment at a laser wavelength of 660 nm and a light dose of 75 Joule/cm^2. Then both of the mice growth and tumor growth are observed continuously. 7 days after photodynamic therapy, the animals were sacrificed. The tumor was stripped and weighed, and the body weight was recorded.

Substance | cell viability (%) ([1]; 1 μg/mL, 660 nm, 2 J/cm^2) | cell viability (%) ([1]; 1 μg/mL, 660 nm, 4 J/cm^2) | cell viability (%) ([1]; 1 μg/mL, 660 nm, 8 J/cm^2) | cell viability (%) ([1]; 1 μg/mL, no light) | cell viability (%) ([1]; 2 μg/mL, 660 nm, 2 J/cm^2) | cell viability (%) ([1]; 2 μg/mL, 660 nm, 4 J/cm^2) | cell viability (%) ([1]; 2 μg/mL, 660 nm, 8 J/cm^2) | cell viability (%) ([1]; 2 μg/mL, no light) | cell viability (%) ([1]; 5 μg/mL, 660 nm, 2 J/cm^2) | cell viability (%) ([1]; 5 μg/mL, 660 nm, 4 J/cm^2) | cell viability (%) ([1]; 5 μg/mL, 660 nm, 8 J/cm^2) | cell viability (%) ([1]; 5 μg/mL, no light) | cell viability (%) ([1]; 10 μg/mL, 660 nm, 2 J/cm^2) | cell viability (%) ([1]; 10 μg/mL, 660 nm, 4 J/cm^2) | cell viability (%) ([1]; 10 μg/mL, no light) | toxicity to the cells when the drug is used alone without photodynamic treatment ([1]; no light) | Inhibitory rate (average ± SD, %) ([2]; 0.2 mg/kg tail vein) | Tumor weight (average ± SD, g) ([2]; 0.2 mg/kg tail vein) | Body weight At the begining ([2]; 0.2 mg/kg) | Body weight At the end ([2]; 0.2 mg/kg) | other results
3-hexoxymethyl-3-devinyl-chlorin e4 disodium salt [CEFO] | 65 ± 3% | 61 ± 3% | 40 ± 2% | 101 ± 2% | 54 ± 3% | 45 ± 2% | 25 ± 2% | 107 ± 2% | 38 ± 2% | 24 ± 3% | 14 ± 4% | 109 ± 2% | 25 ± 2% | 4 ± 1% | 107 ± 2% | will not lower the cell viability | 87.0 ± 3.1% | 0.021 ± 0.005 g | 20.4 ± 0.3 | 21.5 ± 0.3 | cell viability (%) ([1]; 10 μg/mL, 660 nm, 8 J/cm^2): 3 ± 2%; Inhibitory rate (average ± SD, %) ([2]; 0.4 mg/kg tail vein): 97.5 ± 0.4%; Tumor weight (average ± SD, g) ([2]; 0.4 mg/kg tail vein): 0.004 ± 0.001 g; Body weight At the begining ([2]; 0.4 mg/kg): 20.7 ± 0.4; Body weight At the end ([2]; 0.4 mg/kg): 21.8 ± 0.4
3-n-hexylaminomethyl-3-devinyl-chlorin e4 disodium salt [CEFN] | 98 ± 3% | 99 ± 1% | 78 ± 3% | 103 ± 2% | 78 ± 3% | 62 ± 2% | 51 ± 3% | 99 ± 2% | 43 ± 3% | 32 ± 4% | 21 ± 3% | 106 ± 2% | 36 ± 3% | 17 ± 2% | 104 ± 2% | will not lower the cell viability | 68.5 ± 1.7% | 0.051 ± 0.003 g | 20.6 ± 0.6 | 21.7 ± 0.5 | Inhibitory rate (average ± SD, %) ([2]; 0.4 mg/kg tail vein): 82.7 ± 3.7%; Tumor weight (average ± SD, g) ([2]; 0.4 mg/kg tail vein): 0.028 ± 0.006 g; Body weight At the begining ([2]; 0.4 mg/kg): 20.5 ± 0.4; Body weight At the end ([2]; 0.4 mg/kg): 21.6 ± 0.5
